Earlier results on one compound are cited in patent US8057811B2 (Douglas Pharmaceuticals Limited, priority 2003, dated 2011).

For the compound `CN1CCN(C2=Nc3cc(Cl)ccc3Nc3ccccc32)CC1` [Clozapine], the solubility in water entry was “practically insoluble in water”.
